# US20220267753A1, “RATIONAL THERAPEUTIC TARGETING OF ONCOGENIC IMMUNE SIGNALING STATES IN MYELOID MALIGNANCIES VIA THE UBIQUITIN CONJUGATING ENZYME UBE2N” (CHILDREN'S HOSPITAL MEDICAL CENTER, priority 2019, published 2022)
# Experiments:
# [1] = target: T1, UBE2N C87S (Homo sapiens, UniProt P61088, C87S); experiment: Differential scanning fluorimetry (DSF); assay type: binding
# T1 construct: purchased Genescript
# Procedure: (§1) Recombinant UBE2N (2 .tg; Life sensors #UB218) in 3 .tl of buffer containing 20 mM Tris-HCl pH 7.4, 10 mM DTT, 10% glycerol, 150 mM NaCl and 0.02% DMSO as well as six samples of 1 .tg UBE2N mixed with 0.2 .tg of UC-764864 or UC-764865 were diluted to 50 ng/uL in 0.1% formic acid (FA) in preparation of MALDI-TOF analysis. Two .tl aliquots from the samples were used to make a 1:5 dilution with MALDI matrix (5 mg/mL sinapic acid in 60% ACN/0.1% formic acid) with 1 .tL spotted onto the target plate for analysis. For UBE2N C87S mutant, recombinant protein was purchased from Genescript. 2 micrograms of protein as well as 3 samples of UBE2N C87S were mixed with 0.4 micrograms of UC-764864 and UC-764865 in 10 microliters of buffer containing 20 mM Tris HCl pH 7.4, 1 mM DTT, 150 mM NaCl and ˜0.01% of DMSO in each sample. All mixtures were brought up to 40 ul by adding 30 ul of 0.1% formic acid (FA). 5 ul aliquots from the samples were used to make a 1:5 dilution with MALDI matrix as described above. […] The temperature was raised in 1° C. increments from 25° C. to 95° C. and fluorescence was measured at 530 nm. Derivative Tm was determined using Protein Thermal Shift Software version 1.3 by Applied Biosystems and then were analyzed with Prism 6 (GraphPad Software Inc.).
# [2] = target: T2, UBE2N wild type (Homo sapiens, UniProt P61088); experiment: Differential scanning fluorimetry (DSF); assay type: binding; details: recombinant UBE2N protein
# T2 construct: purchased Life sensors UB218
# T2 sequence (P61088 1-152): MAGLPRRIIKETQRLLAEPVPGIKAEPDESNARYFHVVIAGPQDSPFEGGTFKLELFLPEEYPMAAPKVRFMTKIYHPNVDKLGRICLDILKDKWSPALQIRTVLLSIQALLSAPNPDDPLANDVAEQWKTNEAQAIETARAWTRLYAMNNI
# Procedure: as §1
# [3] = test system: THP-1 cells; experiment: Colony formation assay of THP-1 cells with shControl or shUBE2N; assay type: cell-based, human
# Source text: For knockdown studies, UBE2N shRNA template oligonucleotides from the TRC shRNA library cloned into the pLKO.1 TRC cloning vector (Addgene: #10878) and pLKO.1 TRC cloning vector (Table 3). The puromycin gene in pLKO.1 was replaced with GFP. pLKO.1 TRC control was used as non-silencing control (Addgene: #10879). For production of lentiviral particles, lentiviral shRNA expression constructs were transfected together with packaging vectors into 293T producer cells using TransIT transfection reagent (Mirus, MIR 2306), supernatants were harvested after 48 and 72 hours, and concentrated by ultracentrifugation. […] UBE2N knockdown efficiency was determined by quantitative real time PCR (qRT-PCR) and western blot and quantified as described elsewhere. […] Levels of overexpression of UBE2N were determined by western blot.
# In order to determine viability after UBE2N knockdown or inhibition, 1×10^6 AML cells were washed with PBS and mixed with pre-diluted APC-conjugated Annexin V (BD Pharmigen, Franklin Lakes, N.J.) and Propidium iodide (PI) (Invitrogen ThermoFisher 00-6990-42, Waltham, Mass.). […] Colonies were scored after 7 days in culture. […] Colonies were scored at 7 days. […] Colonies were manually scored at 14-16 days after plating or counted with STEMVision (StemCell Technologies, Vancouver, CA).
# [4] = test system: AML cells (THP-1, MOLM-13, OCI-AML2, OCI-AML3, MDSL); experiment: Colony formation (clonogenic) assay in AML/MDS cell lines; assay type: cell-based, human; details: 2 μM
# Procedure: (§2) In order to determine viability after UBE2N knockdown or inhibition, 1×10^6 AML cells were washed with PBS and mixed with pre-diluted APC-conjugated Annexin V (BD Pharmigen, Franklin Lakes, N.J.) and Propidium iodide (PI) (Invitrogen ThermoFisher 00-6990-42, Waltham, Mass.). Cells were stained at room temperature for 15 minutes and suspended in 0.5 ml of Annexin V incubation buffer (eBiosciences 88-8007-74, San Diego, Calif.) for analysis using a BD FACS Canto System (BD Biosciences, San Jose, Calif.). For UBE2N knockdown experiments, PI−/GFP+ cells were sorted using a MoFlo XDP sorter (Beckman Coulter, Brea, Calif.) and plated in methylcellulose (StemCell Technologies H4236, Vancouver, CA) at 1000 cells/ml in 35 mm culture dishes. For UBE2N inhibition experiments, cell lines were plated in methycellulose (StemCell Technologies H4236, Vancouver, CA) at the indicated concentrations of inhibitor. Cells were incubated at 37° C. and 5% CO2. Colonies were scored after 7 days in culture. For UBE2N or UBE2N C87S overexpression experiments, MOLM-13 cells were transduced with lentivectors overexpressing UBE2N wild type or mutant in the presence of polybrene (8 μg/ml). […] Colonies were scored at 7 days. […] Colonies were manually scored at 14-16 days after plating or counted with STEMVision (StemCell Technologies, Vancouver, CA).
# [5] = test system: cord blood CD34+ cells; experiment: Colony formation (clonogenic) assay in healthy cells; assay type: cell-based, human
# Procedure: as §2
# T1 sequence (P61088 whole entry C87S): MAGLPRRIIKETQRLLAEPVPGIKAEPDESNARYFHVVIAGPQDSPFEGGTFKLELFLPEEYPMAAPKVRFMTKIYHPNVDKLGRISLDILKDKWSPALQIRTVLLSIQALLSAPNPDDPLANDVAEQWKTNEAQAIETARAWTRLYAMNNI
Compound,change in Tm of UBE2N(C87S) [1],change in melting temperature (Tm) [2] [C degrees],leukemic colony formation of THP-1 cells following knockdown of UBE2N [3],leukemic progenitor function (colony formation) of THP-1-shControl cells [3],reduction in colony formation vs vehicle [4],clonogenic potential of cord blood CD34+ cells [5]
"COc1ccc(C(=O)C=CSc2nc3ccc(C)cc3[nH]2)cc1 [UC-764865, 1-(4-methoxyphenyl)-3-[(6-methyl-1H-benzimidazol-2-yl)sulfanyl]prop-2-en-1-one]",did not change,−2,–,–,–,–
"CCc1ccc(C(=O)C=CSc2nc3ccc(C)cc3[nH]2)cc1 [UC-764864, 1-(4-ethylphenyl)-3-[(6-methyl-1H-benzimidazol-2-yl)sulfanyl]prop-2-en-1-one]",–,–,did not significantly further suppress,significantly repressed,20-95%,did not affect
